Data from BindingDB's records for doi:10.1016/j.bmc.2019.01.035 (Florida A&M University, 2019).

Target: Sigma non-opioid intracellular receptor 1 (Homo sapiens, UniProt Q99720)
Assay: Displacement [3H]-Pentazocine from sigma 1 receptor (unknown origin) expressed in HEK cell membranes

Sequence of Sigma non-opioid intracellular receptor 1 (Q99720 whole entry): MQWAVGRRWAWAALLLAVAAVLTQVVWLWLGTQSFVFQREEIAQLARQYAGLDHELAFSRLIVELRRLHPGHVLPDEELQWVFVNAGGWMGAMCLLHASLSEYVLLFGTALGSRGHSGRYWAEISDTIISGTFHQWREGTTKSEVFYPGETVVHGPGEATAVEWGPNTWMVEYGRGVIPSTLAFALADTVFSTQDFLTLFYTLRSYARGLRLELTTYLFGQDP

Ki: 63 nM
Compound: O=C(CCCN1CCCN(c2ccccn2)CC1)c1ccc(F)cc1
